Experimental data taken from paper PMC9370035, “Identification of 3-Oxindole Derivatives as Small Molecule HIV-1 Inhibitors Targeting Tat-Mediated Viral Transcription” (Molecules, 2022).

Columns and labels:
[1] = system: HIV-1NL4-3; assay: HIV-1 replication assay (p24 […]) in PBMCs, CXCR4 tropic strain; type: cell-based; settings: HIV-1NL4-3 MOI 0.1, 1.5 μM, 72 h
Protocol: (§1) TZM-bl cells (also referred as JC53BL-13) expressing human CD4, CXCR4, and CCR5 in order to facilitate HIV-1 infection, which contain the firefly luciferase (F-Luc) gene under the control of HIV-1 long terminal repeat (LTR) promoter was used to determine inhibitory effect of the compounds on HIV-1 infection, as described previously with minor modifications. In brief, 1 × 10^4 cells were cultured in 96-well plates for 24 h and then treated with compounds at a final concentration of 3 μM (Figure 1A) or with 1:2 serially diluted compounds at concentrations ranging from 0 to 25 μM (dose-response assay; Figure 1B and Table 2). Without replacement of a culture medium, the cells were then infected with the HIV-1NL4-3 strain at a multiplicity of infection (MOI) of 1 to determine the exact inhibitory effect of compounds on a single round infection. After 48 h, the inhibitory effect of the compounds was determined using a Bright Glo luciferase assay kit (Promega). The infectivity data are presented as a percentage relative to the DMSO control (vehicle). The inhibitory effects of the compounds on viral replication were determined with some minor modifications, as described previously. In brief, 5 × 10^4 cells/ well of A3.01 cells were infected with HIV-1NL4-3 at an MOI of 0.1 with the spinoculation at 300 g for 2 h at 25 °C. PBMCs were pre-activated with phytohemagglutinin M (PHA-M) for 3 days. The pre-activated 4 × 10^5 of PBMCs were washed with fresh media to remove excess PHA-M and then infected with HIV-1NL4-3 or HIV-1AD8 as that of A3.01 infection. After infection, the infectious media were replaced with fresh media (supplemented with international 10 units (IU)/mL of IL-2 for PBMCs containing 1.5 μM of compounds. At 72 h after infection, the inhibitory effect of the compounds on viral replication was determined by measuring the amount of p24, an HIV capsid protein, using an HIV-1 p24 […]™ kit (PerkinElmer, Waltham, MA, USA). Cell viability was determined by using the resazurin-based PrestoBlue™ cell viability reagent (Thermo Fisher Scientific, Waltham, MA, USA) according to the manufacturer’s protocols.

[2] = system: Tat-mediated HIV-1 transcription; assay: microbe, parasite or virus in culture; type: cell-based; settings: for Tat-induced transcriptional activity (F-Luc) / Inhibition of Tat-induced HIV-1 transcription, concentration response: bl-DTR cells; for Tat-induced transcriptional activity (F-Luc): 3 μM, doxycycline 50 ng/mL, 24 h; for Inhibition of Tat-induced HIV-1 transcription, concentration response: 0 to 25 μM
Protocol: (§2) bl-DTR (TZM-bl-derived dual Tat reporter) cells derived from TZM-bl cells by insertion of two doxycycline-inducible lentiviral vector-expressing flag-tagged tat and Renilla-luciferase (R-Luc) genes were used to determine simultaneously both activities of Tat-mediated HIV-1 transcription and general cellular transcription, as described previously. Determination of the inhibitory effect of the compounds on Tat-mediated transcription was performed as described previously. In brief, 1 × 10^4 of bl-DTR cells cultured in 96-well plates were treated with compounds at a final concentration of 3 μM (Figure 3C) or with 1:2 serially diluted compounds at concentrations ranging from 0 to 25 μM (Figure 4 and Table 3). Subsequently, doxycycline was treated at a final concentration of 50 ng/mL to induce Tat-mediated F-Luc and R-Luc. At 24 h after treatment, the activities of F-Luc and R-Luc were determined by using a Dual-Glo™ luciferase assay system (Promega, Madison, WI, USA) according to the manufacturer’s protocols. The data are presented as a percentage relative to the DMSO control (vehicle) in the presence of doxycycline, and the experiment was performed in triplicate.

[3] = Cell viability (resazurin-based PrestoBlue) in parallel with infectivity assay; settings: human, TZM-bl cells; for viability at 48 h, 3 µM: with infection of HIV-1 NL4-3 at MOI of 1; for CC50 at 48 h: serial dilution starting from 100 μM, read-out: CC50 (concentration that reduces cell viability by 50%)
[4] = system: HIV-1NL4-3; assay: HIV-1 infectivity assay in TZM-bl cells (F-Luc under HIV-1 LTR); type: cell-based; settings: for inhibition at 3 µM / IC50: Human immunodeficiency virus 1, NL43, TZM-bl; for inhibition at 3 µM: 48 h, read-out: Inhibition of HIV-1 Infectivity (%), TZM-bl cells, 3 μM, HIV-1 NL4-3 at MOI of 1, 48 h; for IC50: read-out: IC50 (inhibition of HIV-1 infection); for Inhibition of HIV-1 Infectivity (%) / Inhibition ratio of HIV-1 infectivity, dose response: TZM-bl cells; for Inhibition of HIV-1 Infectivity (%): 3 μM, HIV-1 NL4-3 at MOI of 1, 48 h; for Inhibition ratio of HIV-1 infectivity, dose response: HIV-1NL4-3, up to a concentration of 25 μM
Source text: TZM-bl cells (also referred as JC53BL-13) expressing human CD4, CXCR4, and CCR5 in order to facilitate HIV-1 infection, which contain the firefly luciferase (F-Luc) gene under the control of HIV-1 long terminal repeat (LTR) promoter was used to determine inhibitory effect of the compounds on HIV-1 infection, as described previously with minor modifications. […] Without replacement of a culture medium, the cells were then infected with the HIV-1NL4-3 strain at a multiplicity of infection (MOI) of 1 to determine the exact inhibitory effect of compounds on a single round infection. After 48 h, the inhibitory effect of the compounds was determined using a Bright Glo luciferase assay kit (Promega). The infectivity data are presented as a percentage relative to the DMSO control (vehicle). The inhibitory effects of the compounds on viral replication were determined with some minor modifications, as described previously. […] PBMCs were pre-activated with phytohemagglutinin M (PHA-M) for 3 days. The pre-activated 4 × 10^5 of PBMCs were washed with fresh media to remove excess PHA-M and then infected with HIV-1NL4-3 or HIV-1AD8 as that of A3.01 infection.

[5] = system: HIV-1NL4-3; assay: HIV-1 replication assay (p24 […]) in A3.01 T cell line; type: cell-based; settings: A3.01 cells, HIV-1NL4-3 MOI 0.1, 1.5 μM, 72 h
Protocol: as §1

[6] = system: TZM-bl cells; assay: Cell viability (resazurin-based PrestoBlue) in parallel with infectivity assay; settings: 3 μM, with infection of HIV-1 NL4-3 at MOI of 1
[7] = biological target: T1, HIV-1 integrase (Human immunodeficiency virus type 1 group M subtype B, UniProt P04585); assay: HIV-1 integrase assay kit; type: biochemical; settings: 10 μM
T1 construct: purchased XpressBio, Frederick, MD, USA
Protocol: The integrase activity was determined using an HIV-1 integrase assay kit (XpressBio, Frederick, MD, USA), according to the manufacturer’s protocols. In brief, a 96-well plate coated with donor substrate (DS) DNA was blocked with blocking buffer for 30 min at 37 °C. One hundred μL of HIV-1 integrase diluted with 1:300 onto reaction buffer was added to the plate, and the plate was then incubated for 30 min at 37 °C. Subsequently, 50 μL of compounds were added to the plate at final concentrations of 10 and 20 μM. At 5 min after addition of compounds, 50 μL of target substrate DNA diluted at 1:100 was added to the plate and incubated for 30 min at 37 °C. The plate was washed and then incubated with 100 μL of horse radish peroxidase antibody solution for 30 min at 37 °C. Integrase activity was assessed by measuring the peroxidase activity reacted with 3,3′,5,5′-tetramethylbenzidine substrate at optical density […]. The experiment was performed in triplicate.

[8] = system: general cellular transcription; assay: R-Luc activity in bl-DTR cells (general cellular transcription); type: cell-based; settings: high dosages (12.5 μM and 25 μM)
Protocol: as §2

For CCOC(=O)C1(C/C=C/Cl)Nc2cccc(C)c2C1=O (stereo not drawn) [Compound 6a, Ethyl (E)-2-(3-chloroallyl)-4-methyl-3-oxindole-2-carboxylate], which “Inhibitory effect on viral replication (p24)” value (from here on “Inhibitory effect”) [1] is on record?
Its value is “no inhibition”.

And the IC50 ([2]; Human immunodeficiency virus 1, 24 h, read-out: IC50 (inhibition of Tat-mediated HIV-1 transcription))?
The IC50 was 9.53 ± 0.48 µM.

And the viability at 48 h, 3 µM [3]?
The viability at 48 h, 3 µM was 106 ± 9.33%.

And the CC50 at 48 h [3]?
The CC50 at 48 h was 87.4 ± 12.7 µM.

What about the inhibition at 3 µM [4] of the same compound?
Its inhibition at 3 µM is roughly 20%.

And the IC50 [4]?
The IC50 was 13.7 ± 2.55 µM.

What about the “Inhibitory effect” value [5] of the same compound?
The value was “no inhibition”.

And the melting point?
The melting point was greater than 300 °C.

With CC(C)[C@]12O[C@H]1[C@@H]1O[C@]13[C@]1(O[C@H]1C[C@H]1C4=C(CC[C@@]13C)C(=O)OC4)[C@@H]2O [triptolide, reference compound] as the compound, how does the “Tat-induced transcriptional activity (F-Luc)” value [2] read?
The value was “specific inhibition”.

Which “Inhibition of Tat-induced HIV-1 transcription, concentration response” value (“Inhibition … concentration response” below) [2] does the source give for “Methyl (E)-2-(3-chloroallyl)-5-methyl-3-oxindole-2-carboxylate [Compound 6d]” here?
Its value is “did not inhibit”.

What about the “Cell Viability (%)” value [6] of the same compound?
The value was 96.96 ± 9.15%.

And the “Inhibition of HIV-1 Infectivity (%)” value [4]?
The value was 0.00 ± 10.66%.

With C[C@@H]1CCO[C@H]2Cn3cc(C(=O)NCc4ccc(F)cc4F)c(=O)c(O)c3C(=O)N12 [DOL, dolutegravir] as the compound, how does the “Inhibition of integrase activity” value [7] read?
Its value is “inhibited”.

For CCCC1(C(=O)OC)Nc2cc(C)cc(C)c2C1=O (stereo not drawn) [Compound 6i, Methyl 4,6-dimethyl-3-oxo-2-propylindoline-2-carboxylate], which “Inhibitory effect” value [1] is on record?
Its value is “no inhibition”.

And the viability at 48 h, 3 µM [3]?
Its viability at 48 h, 3 µM is 99.4 ± 8.83%.

What about the inhibition at 3 µM [4] of the same compound?
The inhibition at 3 µM was 9.15 ± 0.96%.

And the “Inhibitory effect” value [5]?
Its value is “no inhibition”.

What about the melting point of the same compound?
Its melting point is 132 to 133 °C.

Which “Inhibition … concentration response” value [2] does the source give for CCOC(=O)c1[nH]c2cccc(C)c2c1OC/C=C/Cl [Compound 7a, ethyl (e)-3-((3-chloroallyl)oxy)-4-methyl-1h-indole-2-carboxylate] here?
The value was “do not affect”.

What about the viability at 48 h, 3 µM [3] of the same compound?
The viability at 48 h, 3 µM was 117 ± 2.7%.

And the inhibition at 3 µM [4]?
The inhibition at 3 µM was roughly 20%.

What about the “Inhibition ratio of HIV-1 infectivity, dose response” value (shortened to “Inhibition ratio”) [4] of the same compound?
Its value is roughly 50%.

What about the melting point of the same compound?
The melting point was 226 °C.

For Cc1nnc(C(=O)NC(C)(C)c2nc(C(=O)NCc3ccc(F)cc3)c(O)c(=O)n2C)o1 [RAL, raltegravir], which “Inhibition of integrase activity” value [7] is on record?
Its value is “inhibited”.

With “Methyl (E)-2-(3-chloroallyl)-3-oxindole-2-carboxylate [Compound 6e]” as the compound, how does the “Cell Viability (%)” value [6] read?
Its value is 95.66 ± 7.32%.

And the “Inhibition of HIV-1 Infectivity (%)” value [4]?
Its value is 11.49 ± 5.66%.

Which results are given for Cc1cn([C@H]2C[C@H](N=[N+]=[N-])[C@@H](CO)O2)c(=O)[nH]c1=O [AZT, azidothymidine, reference compound]?
viability at 48 h, 3 µM [3]: 94.8 ± 7.21%; CC50 at 48 h [3]: > 100 µM; inhibition at 3 µM [4]: 99.65 ± 0.048%; IC50 [4]: 0.079 ± 0.0237 µM

With COC(=O)c1[nH]c2ccc(OC)cc2c1OC/C=C/Cl [Compound 7b, methyl (e)-3-((3-chloroallyl)oxy)-5-methoxy-1h-indole-2-carboxylate] as the compound, how does the “Inhibition … concentration response” value [2] read?
The value was “do not affect”.

And the viability at 48 h, 3 µM [3]?
The viability at 48 h, 3 µM was 110 ± 4.96%.

And the inhibition at 3 µM [4]?
The inhibition at 3 µM was roughly 20%.

What about the “Inhibition ratio” value [4] of the same compound?
The value was roughly 50%.

What about the melting point of the same compound?
The melting point was greater than 300 °C.

Which “Inhibitory effect” value [1] does the source give for C=CCC1(C(=O)OC)Nc2cc(C)cc(C)c2C1=O (stereo not drawn) [Compound 6h, Methyl 2-allyl-4,6-dimethyl-3-oxindole-2-carboxylate] here?
Its value is “no inhibition”.

What about the viability at 48 h, 3 µM [3] of the same compound?
The viability at 48 h, 3 µM was 107 ± 4.73%.

What about the inhibition at 3 µM [4] of the same compound?
The inhibition at 3 µM was 23.6 ± 4.46%.

And the “Inhibition ratio” value [4]?
The value was “did not show further increased inhibitory effect”.

And the “Inhibitory effect” value [5]?
Its value is “no inhibition”.

What about the melting point of the same compound?
The melting point was 147 °C.

What does the source list for CCCC1(C(=O)OC)Nc2ccc(OC)cc2C1=O (stereo not drawn) [Compound 6c, Methyl 5-methoxy-3-oxo-2-propylindoline-2-carboxylate]?
viability at 48 h, 3 µM [3]: 92.7 ± 5.77%; inhibition at 3 µM [4]: 16.2 ± 5.52%; melting point: 117 to 118 °C

For COC(=O)C1(C/C=C/Cl)Nc2ccc(OC)cc2C1=O (stereo not drawn) [Compound 6b, Methyl (E)-2-(3-chloroallyl)-5-methoxy-3-oxindole-2-carboxylate], which “Inhibitory effect” value [1] is on record?
The value was “no inhibition”.

And the viability at 48 h, 3 µM [3]?
Its viability at 48 h, 3 µM is 99.6 ± 14.2%.

What about the inhibition at 3 µM [4] of the same compound?
The inhibition at 3 µM was 0.55 ± 4.34%.

What about the “Inhibitory effect” value [5] of the same compound?
Its value is “no inhibition”.

What about the melting point of the same compound?
Its melting point is greater than 300 °C.

For CC[C@H](CO)Nc1nc(NCc2ccccc2)c2ncn(C(C)C)c2n1 [seliciclib, Seliciclib, reference compound], which “Tat-induced transcriptional activity (F-Luc)” value [2] is on record?
The value was “specific inhibition”.

What about the R-Luc activity [8] of the same compound?
Its R-Luc activity is “decrease in R-Luc activity”.
